{"source": "patent US10870647B2", "about": "“Imidazopyridine derivative, method for preparing same, and pharmaceutical composition containing same as active ingredient for preventing or treating cancer” (DAEGU-GYEONGBUK MEDICAL INNOVATION FOUNDATION, priority 2016, dated 2020)", "assay_in_all_cases": "Kinase selectivity, scanMAX Kinase assay panel (DiscoverX), % control at 1 uM", "format_in_all_cases": "binding", "key": {"[1]": {"target": "T1, scanMAX Kinase assay panel (Homo sapiens, UniProt P04629)", "T1 construct": "purchased DiscoverX", "T1 sequence (P04629 33-796)": "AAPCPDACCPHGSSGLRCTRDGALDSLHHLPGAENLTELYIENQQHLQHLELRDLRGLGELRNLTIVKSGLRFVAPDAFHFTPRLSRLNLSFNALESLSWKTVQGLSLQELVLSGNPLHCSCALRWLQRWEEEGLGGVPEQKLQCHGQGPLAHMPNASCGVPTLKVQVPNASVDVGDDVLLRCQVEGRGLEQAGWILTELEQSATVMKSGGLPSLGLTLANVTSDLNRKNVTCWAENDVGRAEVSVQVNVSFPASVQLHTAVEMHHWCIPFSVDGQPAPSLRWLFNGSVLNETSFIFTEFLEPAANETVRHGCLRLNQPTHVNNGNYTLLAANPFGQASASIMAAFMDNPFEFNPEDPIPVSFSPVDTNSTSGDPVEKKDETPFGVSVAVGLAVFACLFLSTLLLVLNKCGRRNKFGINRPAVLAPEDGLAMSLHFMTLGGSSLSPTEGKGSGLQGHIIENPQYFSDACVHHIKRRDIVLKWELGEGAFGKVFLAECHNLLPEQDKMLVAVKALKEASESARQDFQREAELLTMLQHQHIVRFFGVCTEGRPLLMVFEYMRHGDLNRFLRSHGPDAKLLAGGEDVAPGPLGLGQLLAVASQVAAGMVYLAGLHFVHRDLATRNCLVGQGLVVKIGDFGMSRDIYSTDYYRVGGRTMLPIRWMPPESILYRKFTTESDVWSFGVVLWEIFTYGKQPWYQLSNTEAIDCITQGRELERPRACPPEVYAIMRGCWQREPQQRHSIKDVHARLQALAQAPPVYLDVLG", "settings": "TRKA; 1 uM; read-out: Percent Control (%)", "outline": "(§1)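 A single concentration of 1 uM, in DMSO, is applied across the kinase panel. Activity against an individual enzyme is assigned where % control is less than 35.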"}, "[2]": {"target": "T2, scanMAX Kinase assay panel (Homo sapiens, UniProt P42345)", "T2 construct": "purchased DiscoverX", "settings": "MTOR; 1 uM; read-out: Percent Control (%)", "outline": "as §1"}, "[3]": {"target": "T3, scanMAX Kinase assay panel (Homo sapiens, UniProt Q96PY6)", "T3 construct": "purchased DiscoverX", "T3 sequence (Q96PY6 1-1258)": "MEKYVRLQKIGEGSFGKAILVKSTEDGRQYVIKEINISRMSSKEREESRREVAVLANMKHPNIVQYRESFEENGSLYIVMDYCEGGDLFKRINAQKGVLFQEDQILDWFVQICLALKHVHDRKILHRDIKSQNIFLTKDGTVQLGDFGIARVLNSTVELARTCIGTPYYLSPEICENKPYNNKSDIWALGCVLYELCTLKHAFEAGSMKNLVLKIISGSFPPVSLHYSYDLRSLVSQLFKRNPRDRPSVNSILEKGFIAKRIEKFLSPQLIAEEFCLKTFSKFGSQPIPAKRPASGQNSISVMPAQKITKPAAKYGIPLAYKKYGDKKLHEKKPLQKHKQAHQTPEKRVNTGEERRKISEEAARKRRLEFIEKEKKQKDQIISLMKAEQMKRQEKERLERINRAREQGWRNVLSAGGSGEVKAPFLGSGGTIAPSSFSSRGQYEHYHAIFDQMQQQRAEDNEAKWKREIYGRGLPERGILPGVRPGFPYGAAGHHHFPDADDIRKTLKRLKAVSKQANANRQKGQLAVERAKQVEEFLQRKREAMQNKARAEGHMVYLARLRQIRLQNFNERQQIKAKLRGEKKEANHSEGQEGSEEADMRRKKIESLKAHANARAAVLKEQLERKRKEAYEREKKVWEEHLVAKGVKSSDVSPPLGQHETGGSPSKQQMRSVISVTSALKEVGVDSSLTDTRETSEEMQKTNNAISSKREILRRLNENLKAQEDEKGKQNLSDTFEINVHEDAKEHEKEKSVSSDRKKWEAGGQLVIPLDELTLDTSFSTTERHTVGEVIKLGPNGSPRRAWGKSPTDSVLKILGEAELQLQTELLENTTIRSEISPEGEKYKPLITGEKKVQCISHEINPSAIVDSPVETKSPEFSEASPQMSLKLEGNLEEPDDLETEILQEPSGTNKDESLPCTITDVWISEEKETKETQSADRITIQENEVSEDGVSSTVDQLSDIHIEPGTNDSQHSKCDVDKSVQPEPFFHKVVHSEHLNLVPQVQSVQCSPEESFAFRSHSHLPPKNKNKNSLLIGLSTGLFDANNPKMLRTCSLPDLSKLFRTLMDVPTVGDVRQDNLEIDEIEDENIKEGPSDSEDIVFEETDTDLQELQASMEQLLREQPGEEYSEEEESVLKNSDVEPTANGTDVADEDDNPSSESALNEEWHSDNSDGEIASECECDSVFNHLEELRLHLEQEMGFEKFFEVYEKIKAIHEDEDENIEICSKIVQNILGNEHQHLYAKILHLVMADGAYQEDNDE", "settings": "NEK1; 1 uM; read-out: Percent Control (%)", "outline": "as §1"}, "[4]": {"target": "T4, scanMAX Kinase assay panel (Homo sapiens, UniProt P08631)", "T4 construct": "purchased DiscoverX", "T4 sequence (P08631 whole entry)": "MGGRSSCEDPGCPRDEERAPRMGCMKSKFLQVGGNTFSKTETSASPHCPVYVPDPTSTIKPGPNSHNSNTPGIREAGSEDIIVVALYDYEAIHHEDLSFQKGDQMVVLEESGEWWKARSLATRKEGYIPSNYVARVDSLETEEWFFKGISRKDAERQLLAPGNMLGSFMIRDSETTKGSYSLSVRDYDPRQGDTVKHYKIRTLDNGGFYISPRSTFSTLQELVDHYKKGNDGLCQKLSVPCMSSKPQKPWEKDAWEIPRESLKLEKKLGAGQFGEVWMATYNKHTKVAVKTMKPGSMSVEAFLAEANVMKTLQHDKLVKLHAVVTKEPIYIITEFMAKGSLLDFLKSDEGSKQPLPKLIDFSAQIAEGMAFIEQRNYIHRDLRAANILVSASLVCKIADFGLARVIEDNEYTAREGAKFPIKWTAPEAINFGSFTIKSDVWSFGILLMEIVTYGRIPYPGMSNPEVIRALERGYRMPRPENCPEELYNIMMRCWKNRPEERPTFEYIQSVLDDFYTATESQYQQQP", "settings": "HCK; 1 uM; read-out: Percent Control (%)", "outline": "as §1"}, "[5]": {"target": "T5, scanMAX Kinase assay panel (Homo sapiens, UniProt P53350)", "T5 construct": "purchased DiscoverX", "T5 sequence (P53350 whole entry)": "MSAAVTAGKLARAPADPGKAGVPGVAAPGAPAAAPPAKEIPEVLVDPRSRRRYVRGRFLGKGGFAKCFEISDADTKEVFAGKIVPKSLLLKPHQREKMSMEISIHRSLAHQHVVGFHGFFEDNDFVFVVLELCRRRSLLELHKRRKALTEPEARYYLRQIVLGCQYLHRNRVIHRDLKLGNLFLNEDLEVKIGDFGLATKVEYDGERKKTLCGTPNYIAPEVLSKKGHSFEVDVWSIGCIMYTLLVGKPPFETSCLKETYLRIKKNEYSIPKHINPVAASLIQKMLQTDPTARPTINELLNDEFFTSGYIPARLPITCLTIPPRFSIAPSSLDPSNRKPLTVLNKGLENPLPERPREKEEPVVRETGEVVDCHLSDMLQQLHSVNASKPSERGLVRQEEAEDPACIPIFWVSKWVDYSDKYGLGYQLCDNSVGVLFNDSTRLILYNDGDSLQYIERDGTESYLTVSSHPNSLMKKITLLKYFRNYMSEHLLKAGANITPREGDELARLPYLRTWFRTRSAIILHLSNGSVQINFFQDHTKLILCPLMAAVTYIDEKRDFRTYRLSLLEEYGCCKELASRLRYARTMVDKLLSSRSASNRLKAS", "settings": "PLK1; 1 uM; read-out: Percent Control (%)", "outline": "as §1"}, "[6]": {"target": "T6, scanMAX Kinase assay panel (Homo sapiens, UniProt Q86YV6)", "T6 construct": "purchased DiscoverX", "T6 sequence (Q86YV6 1-388)": "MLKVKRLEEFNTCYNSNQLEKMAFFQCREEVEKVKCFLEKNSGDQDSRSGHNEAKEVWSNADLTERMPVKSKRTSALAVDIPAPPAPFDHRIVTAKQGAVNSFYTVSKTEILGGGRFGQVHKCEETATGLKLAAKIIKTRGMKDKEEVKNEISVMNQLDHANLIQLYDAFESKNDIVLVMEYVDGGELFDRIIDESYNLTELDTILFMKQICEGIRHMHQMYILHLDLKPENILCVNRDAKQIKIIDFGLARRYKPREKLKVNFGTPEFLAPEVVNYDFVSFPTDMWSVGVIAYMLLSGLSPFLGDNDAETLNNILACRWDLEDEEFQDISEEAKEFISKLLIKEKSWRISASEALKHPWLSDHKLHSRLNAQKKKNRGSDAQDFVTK", "settings": "MYLK4; 1 uM; read-out: Percent Control (%)", "outline": "as §1"}, "[7]": {"target": "T7, scanMAX Kinase assay panel (Homo sapiens, UniProt O60331)", "T7 construct": "purchased DiscoverX", "T7 sequence (O60331 whole entry)": "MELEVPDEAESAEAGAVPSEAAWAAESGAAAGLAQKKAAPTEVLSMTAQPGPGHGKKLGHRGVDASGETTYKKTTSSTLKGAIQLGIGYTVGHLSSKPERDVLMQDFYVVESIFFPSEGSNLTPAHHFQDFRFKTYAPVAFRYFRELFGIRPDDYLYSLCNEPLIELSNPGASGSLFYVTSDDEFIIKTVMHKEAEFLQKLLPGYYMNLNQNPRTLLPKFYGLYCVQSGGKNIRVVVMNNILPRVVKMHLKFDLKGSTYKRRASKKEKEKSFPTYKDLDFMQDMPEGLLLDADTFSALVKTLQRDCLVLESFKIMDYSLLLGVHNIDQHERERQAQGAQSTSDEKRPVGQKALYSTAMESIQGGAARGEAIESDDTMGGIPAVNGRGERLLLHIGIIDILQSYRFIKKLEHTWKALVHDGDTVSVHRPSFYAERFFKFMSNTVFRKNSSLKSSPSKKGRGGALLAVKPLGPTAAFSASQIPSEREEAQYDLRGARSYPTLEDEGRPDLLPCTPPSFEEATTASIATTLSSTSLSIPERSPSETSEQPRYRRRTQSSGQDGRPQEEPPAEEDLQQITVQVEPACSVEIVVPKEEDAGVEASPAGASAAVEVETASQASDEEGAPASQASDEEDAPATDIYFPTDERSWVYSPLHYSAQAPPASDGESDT", "settings": "PIP5K1C; 1 uM; read-out: Percent Control (%)", "outline": "as §1"}, "[8]": {"target": "T8, scanMAX Kinase assay panel (Homo sapiens, UniProt P51957)", "T8 construct": "purchased DiscoverX", "T8 sequence (P51957 whole entry)": "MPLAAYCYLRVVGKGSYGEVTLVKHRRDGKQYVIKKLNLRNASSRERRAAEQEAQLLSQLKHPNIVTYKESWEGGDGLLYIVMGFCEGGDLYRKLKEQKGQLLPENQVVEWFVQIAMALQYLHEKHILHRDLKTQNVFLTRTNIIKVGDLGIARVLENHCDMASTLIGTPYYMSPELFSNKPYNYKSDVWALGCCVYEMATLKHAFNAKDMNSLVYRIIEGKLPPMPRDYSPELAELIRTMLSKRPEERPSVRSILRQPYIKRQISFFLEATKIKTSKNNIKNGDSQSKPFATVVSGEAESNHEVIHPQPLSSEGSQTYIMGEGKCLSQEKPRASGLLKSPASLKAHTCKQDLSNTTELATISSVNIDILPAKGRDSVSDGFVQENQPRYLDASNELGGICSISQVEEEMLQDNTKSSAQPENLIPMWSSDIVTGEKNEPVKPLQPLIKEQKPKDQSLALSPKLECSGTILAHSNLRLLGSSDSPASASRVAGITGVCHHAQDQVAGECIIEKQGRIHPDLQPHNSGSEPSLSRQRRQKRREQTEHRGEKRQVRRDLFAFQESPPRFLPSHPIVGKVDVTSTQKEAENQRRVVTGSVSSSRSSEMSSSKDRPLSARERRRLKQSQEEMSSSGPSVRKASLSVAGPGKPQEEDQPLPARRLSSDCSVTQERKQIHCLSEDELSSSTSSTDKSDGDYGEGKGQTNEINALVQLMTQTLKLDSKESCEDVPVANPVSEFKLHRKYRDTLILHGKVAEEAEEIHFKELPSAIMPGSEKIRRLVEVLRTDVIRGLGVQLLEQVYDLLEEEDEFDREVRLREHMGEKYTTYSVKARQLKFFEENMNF", "settings": "NEK4; 1 uM; read-out: Percent Control (%)", "outline": "as §1"}}, "data": [{"smiles": "Cc1ccc(C(=O)Nc2ccc(CN3CCN(C)CC3)c(C(F)(F)F)c2)cc1C#Cc1cnc2c(Nc3cnn(C)c3)cccn12", "note": "[Example 1, 4-methyl-3-((8-((1-methyl-1H-pyrazol-4-yl)amino)imidazo[1,2-a]pyridin-3-yl)ethynyl)-N-(4-((4-methylpiperazin-1-yl)methyl)-3-(trifluoromethyl)phenyl)benzamide]", "values": [{"measurement": "remaining binding at 1 µM", "setting": "[1]", "value": 0, "unit": "%"}, {"measurement": "remaining binding at 1 µM", "setting": "[2]", "value": 77, "unit": "%"}, {"measurement": "remaining binding at 1 µM", "setting": "[3]", "value": 52, "unit": "%"}, {"measurement": "remaining binding at 1 µM", "setting": "[4]", "value": 0, "unit": "%"}, {"measurement": "remaining binding at 1 µM", "setting": "[5]", "value": 77, "unit": "%"}, {"measurement": "remaining binding at 1 µM", "setting": "[6]", "value": 86, "unit": "%"}, {"measurement": "remaining binding at 1 µM", "setting": "[7]", "value": 88, "unit": "%"}, {"measurement": "remaining binding at 1 µM", "setting": "[8]", "value": 9, "unit": "%"}]}, {"smiles": "Cc1cn(-c2cc(NC(=O)c3ccc(C)c(C#Cc4cnc5c(Nc6cnn(C)c6)cccn45)c3)cc(C(F)(F)F)c2)cn1", "note": "[Example 12, 4-methyl-N-(3-(4-methyl-1H-imidazol-1-yl)-5-(trifluoromethyl)phenyl)-3-((8-((1-methyl-1H-pyrazol-4-yl)amino)imidazo[1,2-a]pyridin-3-yl)ethynyl)benzamide]", "values": [{"measurement": "remaining binding at 1 µM", "setting": "[1]", "value": 1, "unit": "%"}, {"measurement": "remaining binding at 1 µM", "setting": "[2]", "value": 66, "unit": "%"}, {"measurement": "remaining binding at 1 µM", "setting": "[3]", "value": 96, "unit": "%"}, {"measurement": "remaining binding at 1 µM", "setting": "[4]", "value": 1, "unit": "%"}, {"measurement": "remaining binding at 1 µM", "setting": "[5]", "value": 100, "unit": "%"}, {"measurement": "remaining binding at 1 µM", "setting": "[6]", "value": 92, "unit": "%"}, {"measurement": "remaining binding at 1 µM", "setting": "[7]", "value": 71, "unit": "%"}, {"measurement": "remaining binding at 1 µM", "setting": "[8]", "value": 61, "unit": "%"}]}, {"smiles": "Cc1ccc(NC(=O)C2(C(=O)Nc3ccc(F)cc3)CC2)cc1C#Cc1cnc2c(Nc3cnn(C(C)C)c3)cccn12", "note": "[Example 78]", "values": [{"measurement": "remaining binding at 1 µM", "setting": "[1]", "value": 100, "unit": "%"}, {"measurement": "remaining binding at 1 µM", "setting": "[2]", "value": 91, "unit": "%"}, {"measurement": "remaining binding at 1 µM", "setting": "[3]", "value": 100, "unit": "%"}, {"measurement": "remaining binding at 1 µM", "setting": "[4]", "value": 71, "unit": "%"}, {"measurement": "remaining binding at 1 µM", "setting": "[5]", "value": 100, "unit": "%"}, {"measurement": "remaining binding at 1 µM", "setting": "[6]", "value": 100, "unit": "%"}, {"measurement": "remaining binding at 1 µM", "setting": "[7]", "value": 92, "unit": "%"}, {"measurement": "remaining binding at 1 µM", "setting": "[8]", "value": 100, "unit": "%"}]}]}
